The results in this text go back to PubChem BioAssay AID1918943 (Molecular Pharmacology Branch, DTP, NCI, 2023).

Values joined by “and” are separate entries in the source; they are usually repeats but may differ in a detail not shown here. Identical values can stand only once. Bounds are passed on as bounds.

The assay concerns 855422-203-R-J1-PDC complex spheroid viability. Kind of assay: Anticancer human tumor 855422-203-R-J1-PDC patient-derived bladder carcinoma cell line growth inhibition. The conditions noted are these: for viability, T/C: stronger effect = lower value. The procedure, abridged: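 Drug combinations with the LSD1 inhibitor iadademstat tested on tumor cells co-cultured as spheroids with endothelial cells and mesenchymal stem cells. Concentrations descended in half-log increments from clinical Cmax or 10 microM.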

[1] abbreviates: curve of first compound, second compound 0.1 µM.
Setting [2] is: curve of first compound, second compound 0.316 µM.
The mark [3] stands for this setting: curve of first compound, second compound 1 µM.
Where [4] appears, read: curve of first compound, second compound 3.16 µM.
The mark [5] stands for this setting: curve of first compound, second compound 10 µM.
Setting [6] is: second compound 0.1 µM, first compound 0.00949 µM.
Setting [7] is: second compound 0.1 µM, first compound 0.03 µM.
Where [8] appears, read: second compound 0.1 µM, first compound 0.0949 µM.
The mark [9] stands for this setting: second compound 0.1 µM, first compound 0.3 µM.
Where [10] appears, read: second compound 0.316 µM, first compound 0.00949 µM.
The mark [11] stands for this setting: second compound 0.316 µM, first compound 0.03 µM.
[12] abbreviates: second compound 0.316 µM, first compound 0.0949 µM.
[13] abbreviates: second compound 0.316 µM, first compound 0.3 µM.
Setting [14] is: second compound 1 µM, first compound 0.00949 µM.
Setting [15] is: second compound 1 µM, first compound 0.03 µM.
The mark [16] stands for this setting: second compound 1 µM, first compound 0.0949 µM.
Setting [17] is: second compound 1 µM, first compound 0.3 µM.
The mark [18] stands for this setting: second compound 3.16 µM, first compound 0.00949 µM.
The mark [19] stands for this setting: second compound 3.16 µM, first compound 0.03 µM.
The mark [20] stands for this setting: second compound 3.16 µM, first compound 0.0949 µM.
Setting [21] is: second compound 3.16 µM, first compound 0.3 µM.
The mark [22] stands for this setting: second compound 10 µM, first compound 0.00949 µM.
[23] abbreviates: second compound 10 µM, first compound 0.03 µM.
The mark [24] stands for this setting: second compound 10 µM, first compound 0.0949 µM.
Where [25] appears, read: second compound 10 µM, first compound 0.3 µM.
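Further: drug exposure lasted 7 days starting on day 3 after seeding.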
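Wherever viability, T/C is given: luminescence viability as percent of DMSO vehicle wells = 100%.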

`CCc1c2c(nc3ccc(O)cc13)-c1cc3c(c(=O)n1C2)COC(=O)[C@]3(O)CC` + NC1CC1c1ccc(-c2cccc(O)c2)cc1: the IC50 under setting [1] was < 0.949 nM; the IC50 under setting [2] is < 0.949 nM; the IC50 under setting [3] is < 0.949 nM; the IC50 under setting [4] was < 0.949 nM; the IC50 under setting [5] is < 0.949 nM. Further, the viability, T/C is, setting by setting: (second compound 0.1 µM, first compound 0.000949 µM) 20.8%; (second compound 0.1 µM, first compound 0.003 µM) 14.2%; under setting [6], 9.58%; under setting [7], 6.75%; under setting [8], 4.82%; under setting [9], 3.56%. For the same molecule, the viability, T/C was 17.1% (second compound 0.316 µM, first compound 0.000949 µM); 15.1% (second compound 0.316 µM, first compound 0.003 µM); 10.9% under setting [10]; 6.65% under setting [11]; 4.88% under setting [12]; 2.78% under setting [13]. In addition, the viability, T/C was 15.7% (second compound 1 µM, first compound 0.000949 µM); 13% (second compound 1 µM, first compound 0.003 µM); 10.2% under setting [14]; 6.49% under setting [15]; 3.41% under setting [16]; 2.05% under setting [17]. The viability, T/C by setting is: (second compound 3.16 µM, first compound 0.000949 µM) 15.7%; (second compound 3.16 µM, first compound 0.003 µM) 13.7%; under setting [18], 9.86%; under setting [19], 6.91%; under setting [20], 4.7%; under setting [21], 2.44%. Also, the viability, T/C is, setting by setting: (second compound 10 µM, first compound 0.000949 µM) 17.6%; (second compound 10 µM, first compound 0.003 µM) 12.6%; under setting [22], 8.31%; under setting [23], 5.99%; under setting [24], 2.54%; under setting [25], 1.14%.

In the case of `Nc1ncn(C2CC(O)C(CO)S2)c(=O)n1` (centres undefined), the viability, T/C reads like this: (compound 0.000949 µM) 106% and 93.8%; (compound 0.003 µM) 91.9% and 98.4%; (compound 0.00949 µM) 88.5% and 95.2%; (compound 0.03 µM) 84.7% and 98%; (compound 0.0949 µM) 82.8% and 102%; (compound 0.3 µM) 79.9% and 83.6%. Under “curve of compound”, the half-maximal inhibitory concentration (IC50) was > 300 nM.

Take `Nc1ncn(C2CC(O)C(CO)O2)c(=O)n1` (centres undefined) + NC1CCC(NC2CC2c2ccccc2)CC1: the 50% inhibitory concentration (IC50) runs as follows: under setting [1], > 1000 nM; under setting [2], > 1000 nM; under setting [3], > 1000 nM; under setting [4], > 1000 nM; under setting [5], > 1000 nM. The viability, T/C (second compound 0.1 µM, first compound 0.00316 µM) was 91.5%; the viability, T/C (second compound 0.1 µM, first compound 0.01 µM) is 91.2%; the viability, T/C (second compound 0.1 µM, first compound 0.0316 µM) was 95.6%; the viability, T/C (second compound 0.1 µM, first compound 0.1 µM) was 85.5%; the viability, T/C (second compound 0.1 µM, first compound 0.316 µM) was 83.1%; the viability, T/C (second compound 0.1 µM, first compound 1 µM) is 85.2%. For the same molecule, the viability, T/C is 93.6% (second compound 0.316 µM, first compound 0.00316 µM); 93.1% (second compound 0.316 µM, first compound 0.01 µM); 90.2% (second compound 0.316 µM, first compound 0.0316 µM); 92.2% (second compound 0.316 µM, first compound 0.1 µM); 83% (second compound 0.316 µM, first compound 0.316 µM); 84.7% (second compound 0.316 µM, first compound 1 µM). For the same molecule, the viability, T/C by setting is: (second compound 1 µM, first compound 0.00316 µM) 88.6%; (second compound 1 µM, first compound 0.01 µM) 94.5%; (second compound 1 µM, first compound 0.0316 µM) 93.6%; (second compound 1 µM, first compound 0.1 µM) 86.4%; (second compound 1 µM, first compound 0.316 µM) 90.1%; (second compound 1 µM, first compound 1 µM) 85.3%. Also, the viability, T/C is, setting by setting: (second compound 3.16 µM, first compound 0.00316 µM) 87.5%; (second compound 3.16 µM, first compound 0.01 µM) 81.1%; (second compound 3.16 µM, first compound 0.0316 µM) 79.7%; (second compound 3.16 µM, first compound 0.1 µM) 91.4%; (second compound 3.16 µM, first compound 0.316 µM) 85.9%; (second compound 3.16 µM, first compound 1 µM) 88.9%. The viability, T/C is, setting by setting: (second compound 10 µM, first compound 0.00316 µM) 84.3%; (second compound 10 µM, first compound 0.01 µM) 86.9%; (second compound 10 µM, first compound 0.0316 µM) 85.3%; (second compound 10 µM, first compound 0.1 µM) 88.4%; (second compound 10 µM, first compound 0.316 µM) 88.2%; (second compound 10 µM, first compound 1 µM) 80.5%.

Regarding `CC[C@@]1(O)C(=O)OCc2c1cc1n(c2=O)Cc2cc3c(CN(C)C)c(O)ccc3nc2-1`, the viability, T/C (compound 0.000316 µM) was 90.1% and 96.8%; the viability, T/C (compound 0.001 µM) was 95.2% and 97.2%; the viability, T/C (compound 0.00316 µM) is 89.8% and 94.5%; the viability, T/C (compound 0.01 µM) is 35.8% and 39.8%; the viability, T/C (compound 0.0316 µM) was 25.6% and 21.1%; the viability, T/C (compound 0.1 µM) is 14.6% and 14.9%. For the same molecule, the concentration for half-maximal inhibition (IC50) (curve of compound) was 7.4 nM and 8.07 nM.

Turning to `NS(=O)(=O)OCC1CC(n2ccc3c(NC4CCc5ccccc54)ncnc32)CC1O` (centres undefined) + NC1CCC(NC2CC2c2ccccc2)CC1, the IC50 runs as follows: under setting [1], 708 nM; under setting [2], 765 nM; under setting [3], 747 nM; under setting [4], 593 nM; under setting [5], 469 nM. For the same molecule, the viability, T/C runs as follows: under setting [6], 102%; under setting [7], 102%; under setting [8], 102%; under setting [9], 88.6%; (second compound 0.1 µM, first compound 0.949 µM) 36.9%; (second compound 0.1 µM, first compound 3 µM) 14.8%. Further, the viability, T/C reads like this: under setting [10], 100%; under setting [11], 98.6%; under setting [12], 76.6%; under setting [13], 87.4%; (second compound 0.316 µM, first compound 0.949 µM) 41.5%; (second compound 0.316 µM, first compound 3 µM) 13.9%. For the same molecule, the viability, T/C is 105% under setting [14]; 108% under setting [15]; 79.9% under setting [16]; 83% under setting [17]; 38.9% (second compound 1 µM, first compound 0.949 µM); 17.4% (second compound 1 µM, first compound 3 µM). Further, the viability, T/C under setting [18] was 95.3%; the viability, T/C under setting [19] is 90%; the viability, T/C under setting [20] was 80%; the viability, T/C under setting [21] was 74.5%; the viability, T/C (second compound 3.16 µM, first compound 0.949 µM) was 34.1%; the viability, T/C (second compound 3.16 µM, first compound 3 µM) is 9.44%. The viability, T/C is 86.9% under setting [22]; 95.7% under setting [23]; 70.9% under setting [24]; 69.9% under setting [25]; 23.8% (second compound 10 µM, first compound 0.949 µM); 10.1% (second compound 10 µM, first compound 3 µM).

As a reminder, the IC50 is the concentration that gives 50% inhibition. Broadly, the viability, T/C is the result in the treated group divided by that in the control group, in per cent.
